Entries after “also recorded” stand apart in the source; their conditions may differ. Like-named read-outs stand apart in the source and are kept apart here.

Assay type in all cases: cell-based, human
In test [1] the test system is Endothelial cells over-expressing single genes from NFkB, PI3K/Akt, RAS/MAPK or JAK/STAT pathways. The experiment in a line: Compound profiling in 20 gene over-expression assays (NFkB, PI3K/Akt, RAS/MAPK, JAK/STAT), pairwise Pearson correlation. As to conditions: DRB 10 micromolar, Apigenin 6 micromolar, 24 hours.
Description: Endothelial cells expressing 16 individual genes from NFκB, RAS, PI3K/AKT and JAK/STAT (IFN-γ and IL-4) pathways were treated with compounds for 24 hours. Where indicated additional cytokines were added to cells to reveal activity of the over-expressed genes (e.g. AKT1/IL1 means that IL-1-beta was added to AKT-over-expressing cells). Parameters measured were VCAM-1 for NFκB, PI3K, and RAS/MAPK pathway genes, HLA-DR for JAK/STAT(IFNγ) pathway genes, and VCAM-1 (IL4/VCAM-1) and Eotaxin-3 (IL4/Eot3) for JAK/STAT(IL4) pathway. […] Statistically significant correlations (permutation method described further in the text and in Example 1B) in the table are shaded (dark grey for correlation coefficients in the range of 0.75 to 1, and light grey for the range of 0.55 to 0.75).
With a permutation technique, an average distribution of the correlation coefficients that will be obtained by chance is constructed and the values of the correlations that correspond to a required level of significance are obtained. The original similarity matrix is filtered using these values, thus providing a consistent way of identifying correlations coefficients with potential biological significance. This method also allows calculation of a false positive rate, providing the user with a way of balancing “hit rate” and stringency of correlation significance. […]
Test [2] has as its system HUVEC cell lines over-expressing IKBKB. As to the kind of experiment: VCAM-1 expression (ELISA) in HUVEC over-expressing IKBKB.
For test [3], the system named is HUVEC cell lines over-expressing RELA. As to the kind of experiment: VCAM-1 expression (ELISA) in HUVEC over-expressing RELA.
The subject of test [4] is MYD88 over-expressing endothelial cells. The experiment in a line: Response to MYD88 over-expression in IL-1-beta-treated endothelial cells (VCAM-1, E-selectin). The note with it: IL-1-beta-treated cells; MYD88 inhibits VCAM-1 and E-selectin expression. As for the experimental part: (§1) A. Grouping Genes into Signal Transduction Pathways by Gene Over-Expression. Genes encoding key elements of pro-inflammatory pathways (IL-1, TNF-alpha, CD40, and IFN-gamma), the core NFkB pathway, the PI3K/Akt pathway, and the RAS/RAF/MEK pathway (see Table 2) were introduced into endothelial cells by retroviral transduction and allowed to express their encoded proteins for 48 hours, substantially as described in Example 1. The gene-modified endothelial cells were then subjected to 24 hour cytokine stimulation.
(§2) Gene over-expression generally results in activation of the target pathway (in contrast to most pharmaceutical drugs, which are typically inhibitors).
(§3) To explore this observation further, we re-examined the response to MYD88 and genes encoding representative members of the RAS/MAPK and NFkB pathways (RAS* and TNFRSF1A, respectively) in all individual cell systems. […] By contrast, the response induced by MYD88 in IL-1-beta-treated cells was similar to that induced by RAS*, the main effect being to inhibit expression of the adhesion molecules VCAM-1 and E-selectin. Over-expression of MYD88 thus appears to stimulate the RAS/MAPK pathway under these conditions. […] MYD88 (and IRAK1) are known to be involved in IL-1-induced but not in TNF-induced signaling, and PD098059 indeed had no effect on VCAM-1 expression in TNF-alpha-treated cells. […]

Test [5] deals with RAS* over-expressing endothelial cells. As to the kind of experiment: Response to RAS* over-expression in IL-1-beta-treated endothelial cells (VCAM-1, E-selectin). The note with it: IL-1-beta-treated cells; RAS* inhibits VCAM-1 and E-selectin expression. As for the experimental part: as §1, §2, §3
Another test has as its system TNF-alpha-treated cells. As to the kind of experiment: VCAM-1 expression in TNF-alpha-treated endothelial cells.
Source text: as §2
To explore this observation further, we re-examined the response to MYD88 and genes encoding representative members of the RAS/MAPK and NFkB pathways (RAS* and TNFRSF1A, respectively) in all individual cell systems. […] By contrast, the response induced by MYD88 in IL-1-beta-treated cells was similar to that induced by RAS*, the main effect being to inhibit expression of the adhesion molecules VCAM-1 and E-selectin. Over-expression of MYD88 thus appears to stimulate the RAS/MAPK pathway under these conditions. […] MYD88 (and IRAK1) are known to be involved in IL-1-induced but not in TNF-induced signaling, and PD098059 indeed had no effect on VCAM-1 expression in TNF-alpha-treated cells. Multi-system analysis can thus detect novel functional interrelationships between different signaling pathways.

The test system of test [6] is RAS*, RAF* or MEK1* over-expressing cells. The experiment in a line: Profiles induced by over-expression of RAS*, RAF* or MEK1* genes. The source says:
The pathway information developed by practice of the methods of the present invention facilitates the in-depth characterization (mechanism-of-action studies) of chemical compounds. […] A high throughput approach can be used to test a compound against genes from known signaling pathways, as well as genes of unknown pathway origin.

The subject of test [7] is HUVEC stimulated with IL-1-beta, TNF-alpha and IFN-gamma. As to the kind of experiment: Functional profiles in HUVEC stimulated with IL-1-beta, TNF-alpha and IFN-gamma compared with siRNA knock-down profiles. As to conditions: E-selectin, HLA-DR, ICAM-1, IL-8, MCP-1, MIG, VCAM-1 readouts.
Source text: The cells used to generate functional profiles were HUVEC stimulated with a mixture of cytokines IL-1beta+TNF-alpha+IFN-gamma, and the readout parameters were E-selectin, HLA-DR, ICAM-1, IL-8, MCP-1, MIG and VCAM-1. Statistical analysis (permutation method) and generation of a two-dimensional map was done as described above.
Early passage (<5) exponentially growing HUVEC cells were harvested, washed once with PBS, and resuspended at 2×10^6 cells in 100 microliter Nucelofection solution (Human Umbilical Vein Endothelial Cell Nucleofector Kit, AMAXA, Koeln, Germany). SiRNA (15 microliter of a 20 micromolar solution; Dharmacon, Lafayette, Colo.) was added to the cell suspension, transferred into an electroporation cuvette, and electroporated using the U-1 setting on an AMAXA Nucleofector device. The cell suspension was then transferred into a separate tube containing 3 ml of complete EGM-2 media (Clonetics), incubated at 37° C. for 10 minutes, and plated into 96-well microtiter plates (25,000 cells/well) for cytokine activation and ELISA analysis as described above. Statistical analyses and pairwise correlation analyses of functional profiles obtained by gene knock-down were performed in the manner as described for the gene-over-expression approach described above.
Test [8] concerns HUVEC cell lines over-expressing TNF-alpha. As to the kind of experiment: VCAM-1 expression (ELISA) in HUVEC over-expressing TNF-alpha.

Regarding `OC[C@H]1O[C@@H](n2cnc3cc(Cl)c(Cl)cc32)[C@H](O)[C@@H]1O` [DRB], the “Overlap of functional profile with those of 17-MG and beta-zearalenol” value in test [1] is “only in the JAK/STAT portion of the overall profile”.
Take `CC(Cc1ccc(O)c(O)c1)C(C)Cc1ccc(O)c(O)c1` (stereo not shown) [NDGA, nordihydroguaiaretic acid]: in test [2], the “Inhibition of IKBKB induced VCAM-1 expression” value is listed as “not IKBKB or RELA induced VCAM-1 expression; also recorded: inhibits only the TNF-alpha gene”. In addition, in test [3], the “Inhibition of RELA induced VCAM-1 expression” value was “not IKBKB or RELA induced VCAM-1 expression; also recorded: inhibits only the TNF-alpha gene”.
On to `COc1cccc(-c2cc(=O)c3ccccc3o2)c1N` [PD098059], for which the “Effect on the response induced by MYD88 over-expression” value in test [4] is “reversed the effect”. Further, in [5], the “Effect on the response induced by RAS* over-expression” value is given as “reversed the effect”. The “Effect on VCAM-1 expression” value in the test with TNF-alpha-treated cells is reported as “no effect”. Further, the “Effect on profiles induced by RAS*, RAF* or MEK1* genes” value in test [6] (gene over-expressing cells) is reported as “affected”.
On to `Oc1ccc(-c2nc(-c3ccncc3)c(-c3ccc(F)cc3)[nH]2)cc1` [SB202190], for which the “Similarity of functional profile to siRNA-mediated dual knock-down of MEK3 and 6” value in test [7] is “similar”.
As for `N#CC(=C(/N)Sc1ccccc1N)/C(C#N)=C(/N)Sc1ccccc1N` [Uo126], in test [6], the “Effect on profiles induced by RAS*, RAF* or MEK1* genes” value is “affected”.
For the molecule `O=c1cc(-c2ccc(O)cc2)oc2cc(O)cc(O)c12` [apigenin], the “Overlap of functional profile with those of 17-MG and beta-zearalenol” value in test [1] was “only in the JAK/STAT portion of the overall profile”.
For the molecule `CC(C)Cc1ccc(C(C)C(=O)O)cc1` (stereo not shown) [ibuprofen], the “Inhibition of TNF-alpha induced VCAM-1 expression” value in test [8] was “inhibits TNF-alpha and IKBKB genes”. Besides, the “Inhibition of IKBKB induced VCAM-1 expression” value in test [2] was “inhibits TNF-alpha and IKBKB genes”. Besides, the “Inhibition of RELA induced VCAM-1 expression” value in test [3] is “not in RELA over-expressing cells”.
